Test results published in patent US12577256B2, “Aryl receptor modulators and methods of making and using the same” (Nogra Pharma Limited, priority 2014, dated 2026).

Assays:
[1] = target: T1, AhR (Homo sapiens, UniProt P35869); conditions: cited from earlier work
T1 sequence (P35869 11-848): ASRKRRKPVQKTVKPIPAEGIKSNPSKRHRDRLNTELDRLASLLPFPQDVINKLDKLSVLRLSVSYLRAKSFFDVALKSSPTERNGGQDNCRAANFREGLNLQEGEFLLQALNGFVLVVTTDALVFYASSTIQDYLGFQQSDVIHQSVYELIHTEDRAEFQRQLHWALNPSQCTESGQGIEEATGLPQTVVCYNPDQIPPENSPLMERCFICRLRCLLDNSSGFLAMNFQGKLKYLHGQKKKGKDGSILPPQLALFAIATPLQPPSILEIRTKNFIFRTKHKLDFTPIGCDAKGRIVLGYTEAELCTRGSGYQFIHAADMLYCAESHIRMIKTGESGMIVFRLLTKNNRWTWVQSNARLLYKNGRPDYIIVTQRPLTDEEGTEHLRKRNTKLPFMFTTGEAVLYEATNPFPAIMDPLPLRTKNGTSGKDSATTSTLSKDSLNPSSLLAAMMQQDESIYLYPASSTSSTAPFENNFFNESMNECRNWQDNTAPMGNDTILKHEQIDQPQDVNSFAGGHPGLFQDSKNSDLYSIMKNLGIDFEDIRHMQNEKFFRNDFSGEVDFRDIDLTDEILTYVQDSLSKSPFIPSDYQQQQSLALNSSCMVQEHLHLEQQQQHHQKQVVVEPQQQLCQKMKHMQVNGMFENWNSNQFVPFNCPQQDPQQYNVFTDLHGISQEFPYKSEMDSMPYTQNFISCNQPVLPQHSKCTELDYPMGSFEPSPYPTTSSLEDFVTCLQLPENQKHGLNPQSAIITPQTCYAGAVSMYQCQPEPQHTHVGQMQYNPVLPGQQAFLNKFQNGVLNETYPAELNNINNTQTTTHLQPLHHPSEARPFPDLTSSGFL

[2] = tested on: IFN-γ; assay: IFN-γ RNA expression in anti-CD3/anti-CD28 stimulated PBMC (real-time PCR); assay type: cell-based, human; conditions: anti-CD3/anti-CD28, 100, 200 or 400 nM compound, 24 hours, RNA (FIG. 24)
Description: (§1) Peripheral blood mononuclear cells (PBMC), isolated from 3 healthy subjects, were isolated by density gradient centrifugation (Lymphoprep; Nycomed Pharma) from 5 mL heparinized blood samples. PBMC were resuspended in RPMI 1640 supplemented with 10% fetal calf serum at a concentration of 1×10^6 cells/mL, cultured in 24-well culture plates (Falcon Plastic) and stimulated with medium alone or anti-CD3/anti-CD28 (Miltenyi Biotec) antibodies with or without 100, 200, or 400 nM of AhR binding compounds (02, 04, 13, 15, 17, or 24), dimethyl sulfoxide or 6-formylindolo[3,2-b]cathazole (Ficz, 200 nM). Total RNA was extracted from cells cultured for 24 hours. For RNA preparation, cells were lysed in 1 mL of guanidium thiocyanate buffer and subjected to phenol/chloroform extraction using TRizol reagent (Invitrigen). The sample obtained was quantitated by absothance at 260 nm and complementary DNA (cDNA) was synthetized from […] of total RNA. cDNA was amplified using the following conditions: denaturation for 1 minute at 95° C.; annealing for 30 seconds at 58° C. for IFN-γ, and 60° C. for f3-actin; and followed by 30 seconds of extension at 72° C. […] IL-22 was evaluated using commercially available TaqMan probes (Applied Biosystems). β-actin (forward (SEQ ID NO. 3) 5′-[…]-3′, reverse (SEQ ID NO.4) 5′-[…]-3′) was used as a housekeeping gene. Gene expression was calculated using the AACt algorithm.

[3] = tested on: IL-22; assay: IL-22 RNA expression in anti-CD3/anti-CD28 stimulated PBMC (real-time PCR); assay type: cell-based, human; conditions: anti-CD3/anti-CD28, 100, 200 or 400 nM compound, 24 hours, RNA (FIG. 24)
Description: as §1

[4] = cited from earlier work

| SMILES | activation of the AhR [1] | production of IFN-γ [2] | production of IL-22 [3] | anti-inflammatory properties in vivo [4] |
| --- | --- | --- | --- | --- |
| Cc1oncc1C(=O)Nc1ccc(C(F)(F)F)cc1 [Leflunomide] | activates |  |  |  |
| COc1cc(Nc2nc3ccccc3[nH]2)cc(OC)c1OC [compound 17, N (3,4,5-trimethoxyphenyl)-1H-benzo[d]imidazol-2-amine] |  | decreasing | strongly increases |  |
| COc1ccc(Cc2nc3ccc(C(F)(F)F)cc3s2)cc1OC [compound 15, 2-(3,4-dimethoxybenzyl)-6-(trifluoromethyl)benzo[d]thiazole] |  | decreasing | strongly increases |  |
| C=CCn1nc(-c2ccc(OC)c(OC)c2)c2cccc(C(F)(F)F)c21 [SGA 360] |  |  |  | exhibits anti-inflammatory properties in vivo |
